26 compounds from patent US20260256789A1, “METHODS FOR TREATMENT OF CANCER” (Frontier Medicines Corporation, priority 2022, published 2026) can be followed below.

pIC50: −log10 of the molar value.

The experiment deals with T1, KRAS G12C (GMPPNP-loaded) and cRAF Ras-binding domain (Homo sapiens, UniProt P01116, C118S/C51S/C80L/G12C).
T1 construct: truncated version comprising amino acids 1-169
T1 sequence (P01116 1-169 isoform P01116-2 G12C/C51S/C80L/C118S): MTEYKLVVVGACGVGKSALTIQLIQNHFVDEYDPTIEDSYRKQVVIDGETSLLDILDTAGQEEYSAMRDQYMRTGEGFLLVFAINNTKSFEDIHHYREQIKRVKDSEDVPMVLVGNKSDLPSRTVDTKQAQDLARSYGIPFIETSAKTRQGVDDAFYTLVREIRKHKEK
Nature of the experiment: Inhibition of KRAS G12C and cRAF binding (AlphaScreen). To be noted: KRAS G12C preloaded with GTP analogue GMPPNP, 2 hours preincubation. An excerpt:
The ability of compounds of Formula (A), Formula (B) and Formula (C), and pharmaceutically acceptable salts and/or isotopologues thereof, to inhibit activity of the GTP-bound form of KRAS G12C can be tested using methods such as the in vitro assay described in Example 179 below. Example 179 describes determining, for various compounds, the half-maximal inhibition (IC50) of KRAS G12C loaded with GTP analogue GMPPNP from binding to cRaf, as the Ras-binding domain (RBD). Example 180 describes determining, for various compounds, the half-maximal inhibition (IC50) of KRAS G12C loaded with GTP analogue GMPPNP from binding to PI3Kα, as the Ras-binding domain (RBD). Example 181 describes testing compounds for the ability to inhibit cell viability in MCF10A G12C/A59G mutant, which abrogates GTPase activity, thus preventing hydrolysis of GTP to GDP.
The AlphaScreen technology was used to determine IC50s for compound inhibition of KRAS G12C (present as the Cys-light (C51S, C80L and C118S), truncated version comprising amino acids 1-169) and cRAF interaction. Compounds were diluted in 100% DMSO and each compound concentration was spotted at 200 nl/well onto low volume, white 384 well plates. The KRAS G12C contained a biotin-AviTag and the cRaf, as Ras-binding domain (amino acids 50-131, RBD), was GST-tagged. KRAS G12C was preloaded with the GTP analogue Guanosine 5′-[β,γ-imido]triphosphate (GMPPNP). The KRAS G12C was diluted in 25 mM Hepes, pH 7.4, 150 mM NaCl, 5 mM MgCl2, 0.01% TritonX-100 and 10 μM GMPPNP and added at 10 ul/well to compound-spotted plates resulting in a DMSO concentration of 2%. Plates were incubated for 2 hours. A mixture of RBD and the AlphaScreen streptavidin donor and glutathione acceptor beads diluted in 25 mM Hepes, pH 7.4, 150 mM NaCl, 5 mM MgCl2, 0.01% TritonX-100 and 2% DMSO was then added at 10 ul/well and incubated for 60-90 minutes before the samples were read for emission at 570 nm after excitation of the donor beads at 680 nm. All incubations were performed at room temperature. The final top compound concentration was 50 μM with 1:3 titrations for 10-point dose response curves. Final assay conditions were 0.5 nM KRAS G12C, 0.75 nM RBD and 5 μg/ml each of AlphaScreen donor and acceptor beads. IC50s were determined using nonlinear regression fit of [inhibitor] vs. response (4 parameters). […]
For orientation: In Alpha technology, singlet oxygen from a donor bead excites a nearby acceptor bead.
Turning to `Cc1noc(/C=C/C(=O)N2CC[C@@H](N(C)c3nc(OCC45CCCN4CCC5)nc4c3C[C@@H](C)[C@H](c3nc(N)cc(C)c3C(F)(F)F)C4)C2)n1` (single isomer, unassigned) [Compound 9], the negative-log IC50 (pIC50) was 6.30 to 7.00.

As to `CN1CC[C@H]1/C=C/C(=O)N1CC[C@@H](N(C)c2nc(OC[C@@]34CCCN3C[C@H](F)C4)nc3c(F)c(-c4nc(N)cc5cccc(F)c45)ncc23)C1` (single isomer, unassigned) [Example 2], the negative logarithm of the IC50 (pIC50) was 6.30 to 7.00. As for `CN1CC[C@@H]1/C=C/C(=O)N1CC[C@@H](N(C)c2nc(OC[C@@]34CCCN3C[C@H](F)C4)nc3c(F)c(-c4nc(N)cc5cccc(Cl)c45)ncc23)C1` (single isomer, unassigned) [Example 3], the figure is 7.00 to 8.00. As for `CN1CC[C@H]1/C=C/C(=O)N1CC[C@@H](N(C)c2nc(OC[C@@]34CCCN3C[C@H](F)C4)nc3c(F)c(-c4nc(N)cc5cccc(Cl)c45)ncc23)C1` (single isomer, unassigned) [Example 6], the figure is above 8.00; as for `CN1CC[C@@H]1/C=C/C(=O)N1CC[C@@H](N(C)c2nc(OC[C@@]34CCCN3C[C@H](F)C4)nc3c(F)c(-c4nc(N)cc5cccc(F)c45)ncc23)C1` (single isomer, unassigned) [Example 7], above 8.00; as for `Cc1noc(/C=C/C(=O)N2CC[C@@H](N(C)c3nc(OCC45CCCN4CCC5)nc4c3C[C@H](C)[C@@H](c3nc(N)cc(C)c3C(F)(F)F)C4)C2)n1` (single isomer, unassigned) [Example 17], 7.00 to 8.00. As for `C=CC(=O)N1CC[C@@H](N(C)c2nc(OCC34CCCN3CCC4)nc3c2C[C@H](C)[C@@H](c2nc(N)cc(C)c2C(F)(F)F)C3)C1` (single isomer, unassigned) [Example 18], the figure is 6.30 to 7.00; as for `Cc1cc(N)nc(-c2ncc3c(N(C)[C@@H]4CCN(C(=O)/C=C/[C@H]5CCN5C)C4)nc(OC[C@@]45CCCN4C[C@H](F)C5)nc3c2F)c1C(F)(F)F` (single isomer, unassigned) [Example 26], above 8.00; as for `Cc1cc(N)nc(-c2ncc3c(N(C)[C@@H]4CCN(C(=O)/C=C/[C@@H]5CCN5C)C4)nc(OC[C@@]45CCCN4C[C@H](F)C5)nc3c2F)c1C(F)(F)F` (single isomer, unassigned) [Example 27], above 8.00. `Cc1cc(N)nc(-c2ncc3c(N(C)[C@@H]4C[C@@H](C)N(C#N)C4)nc(OC[C@@]45CCCN4C[C@H](F)C5)nc3c2F)c1C(F)(F)F` (single isomer, unassigned) [Example 40] showed a pIC50 of 7.00 to 8.00. With `C=CC(=O)N1CC(CN(C)c2nc(OCC34CCCN3CCC4)nc3c2C[C@H](C)[C@@H](c2nc(N)cc(C)c2C(F)(F)F)C3)C1` (single isomer, unassigned) [Example 50] the figure was at most 6.30; with `Cc1noc(/C=C/C(=O)N2CC[C@@H](N(C)c3nc(OC[C@@]45CCCN4C[C@H](F)C5)nc4c3C[C@@H](C)[C@H](c3nc(N)cc(C)c3C(F)(F)F)C4)C2)n1` (single isomer, unassigned) [Example 57], above 8.00. Take `C=CC(=O)N1CC(CN(C)c2nc(OC[C@@]34CCCN3C[C@H](F)C4)nc3c2C[C@@H](C)[C@H](c2nc(N)cc(C)c2C(F)(F)F)C3)C1` (single isomer, unassigned) [Example 58]: the pIC50 was 6.30 to 7.00. `C=CC(=O)N1CC[C@@H](N(C)c2nc(OC[C@@]34CCCN3C[C@H](F)C4)nc3c(F)c(-c4cccc(Cl)c4C4CC4)ncc23)[C@H]1C` (single isomer, unassigned) [Example 77] had a pIC50 of 6.30 to 7.00. As for `C=CC(=O)N1CC[C@@H](N(C)c2nc(OC[C@@]34CCCN3C[C@H](F)C4)nc3c(F)c(-c4cccc(Cl)c4C(F)(F)F)ncc23)[C@H]1C` (single isomer, unassigned) [Example 78], the figure is 7.00 to 8.00. For `Cc1nsc(/C=C/C(=O)N2CC(CN(C)c3nc(OC[C@@]45CCCN4C[C@H](F)C5)nc4c3C[C@@H](C)[C@H](c3nc(N)cc(C)c3C(F)(F)F)C4)C2)n1` (single isomer, unassigned) [Example 126], the negative logarithm of the IC50 (pIC50) was 7.00 to 8.00. As for `Cc1cc(N)nc([C@H]2Cc3nc(OC[C@@]45CCCN4C[C@H](F)C5)nc(N(C)CC4CN(C(=O)/C=C/c5nc(C(C)(C)O)no5)C4)c3C[C@@H]2C)c1C(F)(F)F` (single isomer, unassigned) [Example 155], the figure is at most 6.30; as for `Cc1cc(N)nc([C@@H]2Cc3nc(OC[C@@]45CCCN4C[C@H](F)C5)nc(N(C)CC4CN(C(=O)/C=C/c5nc(C(C)(C)O)no5)C4)c3C[C@H]2C)c1C(F)(F)F` (single isomer, unassigned) [Example 162], 7.00 to 8.00.

On to `Cc1nsc(/C=C/C(=O)N2CC(CN(C)c3nc(OC[C@@]45CCCN4C[C@H](F)C5)nc4c3C[C@H](C)[C@@H](c3nc(N)cc(C)c3C(F)(F)F)C4)C2)n1` (single isomer, unassigned) [Example 174], for which the pIC50 was at most 6.30. As for `Cc1cc(N)nc(-c2ncc3c(N(C)[C@@H]4CCN(C(=O)/C=C/C5CCN5C)C4)nc(OC[C@@]45CCCN4C[C@H](F)C5)nc3c2F)c1C(F)(F)F` (stereo in doubt) [Example 134], the figure is above 8.00; as for `Cc1noc(/C=C/C(=O)N2CC[C@@H](N(C)c3nc(OCC45CCCN4CCC5)nc4c3C[C@H](C)C(c3nc(N)cc(C)c3C(F)(F)F)C4)C2)n1` (stereo in doubt) [Example 163], 7.00 to 8.00. As for `Cc1nsc(/C=C/C(=O)N2CC(CN(C)c3nc(OC[C@@]45CCCN4C[C@H](F)C5)nc4c(F)c(-c5nc(N)cc(C)c5C(F)(F)F)ncc34)C2)n1` [Example 4, (E)-1-(3-(((7-(6-amino-4-methyl-3-(trifluoromethyl)pyridin-2-yl)-8-fluoro-2-(((2R,7aS)-2-fluorohexahydro-1H-pyrrolizin-7a-yl)methoxy)pyrido[4,3-d]pyrimidin-4-yl)(methyl)amino)methyl)azetidin-1-yl)-3-(3-methyl-1,2,4-thiadiazol-5-yl)prop-2-en-1-one], the figure is 7.00 to 8.00; as for `C=CC(=O)N1CC[C@@H](N(C)c2nc(OC[C@@]34CCCN3C[C@H](F)C4)nc3c(F)c(-c4nc(N)cc(C)c4C4CC4)ncc23)C1` [Example 5, 1-((R)-3-((7-(6-amino-3-cyclopropyl-4-methylpyridin-2-yl)-8-fluoro-2-(((2R,7aS)-2-fluorotetrahydro-1H-pyrrolizin-7a(5H)-yl)methoxy)pyrido[4,3-d]pyrimidin-4-yl)(methyl)amino)pyrrolidin-1-yl)prop-2-en-1-one], 6.30 to 7.00; as for `CC(C)c1noc(/C=C/C(=O)N2CC[C@@H](N(C)c3nc(OC[C@@]45CCCN4C[C@H](F)C5)nc4c(F)c(-c5nc(N)ccc5C5CC5)ncc34)C2)n1` [Example 8, (E)-1-((R)-3-((7-(6-amino-3-cyclopropylpyridin-2-yl)-8-fluoro-2-(((2R,7aS)-2-fluorotetrahydro-1H-pyrrolizin-7a(5H)-yl)methoxy)pyrido[4,3-d]pyrimidin-4-yl)(methyl)amino)pyrrolidin-1-yl)-3-(3-isopropyl-1,2,4-oxadiazol-5-yl)prop-2-en-1-one], 7.00 to 8.00. With `Cc1noc(/C=C/C(=O)N2CC[C@@H](N(C)c3nc(OC[C@@]45CCCN4C[C@H](F)C5)nc4c(F)c(-c5nc(N)cc(C)c5C5CC5)ncc34)C2)n1` [Example 11, (E)-1-((R)-3-((7-(6-amino-3-cyclopropyl-4-methylpyridin-2-yl)-8-fluoro-2-(((2R,7aS)-2-fluorotetrahydro-1H-pyrrolizin-7a(5H)-yl)methoxy)pyrido[4,3-d]pyrimidin-4-yl)(methyl)amino)pyrrolidin-1-yl)-3-(3-methyl-1,2,4-oxadiazol-5-yl)prop-2-en-1-one] the figure was above 8.00. In turn, `C=CC(=O)N1CC[C@@H](N(C)c2nc(OC[C@@]34CCCN3C[C@H](F)C4)nc3c(F)c(-c4cc(O)cc(Cl)c4C4CC4)ncc23)C1` [Example 12, 1-((R)-3-((7-(3-chloro-2-cyclopropyl-5-hydroxyphenyl)-8-fluoro-2-(((2R,7aS)-2-fluorotetrahydro-1H-pyrrolizin-7a(5H)-yl)methoxy)pyrido[4,3-d]pyrimidin-4-yl)(methyl)amino)pyrrolidin-1-yl)prop-2-en-1-one] had a pIC50 above 8.00.

One may read the pIC50 as the IC50 on a negative log10 scale, so that one unit is a factor of ten.
